Drawing on patent US12134610B2, “Somatostatin subtype-2 receptor (SST2R) targeted therapeutics and uses thereof” (priority 2022, dated 2024), this text covers EC50 for twelve compounds.

For the assay, the target named is T1, human somatostatin receptor subtype 2 (Homo sapiens, UniProt P30874).
T1 construct: expressed in transfected cells
As to the kind of experiment: Functional cAMP assay for SSTR2 agonists (HTRF) in CHO-K1 cells. To be noted: CHO-K1 cells stably expressing human SST2, 20 min. Type of assay: cell-based. The text has this: General overview: All five SSTR subtypes are Gi coupled G-protein coupled receptors (GPCRs) that lead to decreases in intracellular cyclic AMP (cAMP) when activated by an agonist. Therefore, measurement of intracellular cAMP levels can be used to assess whether compounds of the invention are agonists of SSTR subtypes (John Kelly, Troy Stevens, W. Joseph Thompson, and Roland Seifert, Current Protocols in Pharmacology, 2005, 2.2.1-2.2). One example of an intracellular cAMP assay is described below.
Functional Assay for SSTR2 Agonists
Four days prior to the assay, 2,000 Chinese hamster ovary cells (CHO-K1, ATCC #CCL-61) stably expressing the human somatostatin receptor subtype 2 are plated in each well of a 96-well tissue culture-treated plate in Ham's F12 growth media (ThermoFisher #10-080-CM) supplemented with 10% donor bovine serum (Gemini Bio-Products #100-506), 100 U/mL penicillin; 100 ug/mL streptomycin; 2 mM L-glutamine (Gemini Bio-Products #400-110) and 0.2 mg/mL hygromycin B (GoldBio #31282-04-9). The cells are cultured at 37° C., 5% CO2 and 95% humidity. cAMP is measured with HTRF dynamic cAMP assay (Cisbio, #62AM5PEJ) per manufacturer's instructions. On the day of the assay, the media is aspirated and the cells are treated with 50 μL of stimulation buffer supplemented with 10.2 mM 3-Isobutyl-1-methylxanthine (IBMX, Millipore Sigma #15879) and 1.6 μM NKH477 (Tocris #1603), plus various dilutions of SMDCs of the present invention. The cells are incubated for 20 minutes at 37° C. (the final concentration of the compounds of the invention are typically 0-10,000 nM). The cells are treated with 50 μL of lysis buffer (HRTF cAMP kit, Cisbio) and incubated at room temperature for 30 minutes with rotary shaking at 600 rpm, and then diluted with 150 μL of stimulation buffer and shaken for an additional five minutes at 300 rpm. The lysate is transferred to 384-well plates and incubated for 1-24 hours at room temperature, and cAMP accumulation is detected by d2-labeled cAMP and Anti-cAMP-Cryptate. The time-resolved fluorescent signal is read using a m1000 Pro (Tecan) or CLARIOStar (BMG Labtech) microplate reader, where the samples are excited with light at 340 nm and emission light is measured at 620 nm and 665 nm. The data is expressed as a calculation of the fluorescence ratio (665 nm/620 nm). The intracellular cAMP concentrations are calculated by regression to a standard curve and are plotted vs. the concentration of the compounds of the invention. The EC50 of the compounds are calculated using standard methods. All data manipulations are in GraphPad Prism v9 (GraphPad, San Diego, CA).

Where two headings read alike, the source gives them in different places.

T1 sequence (P30874 whole entry): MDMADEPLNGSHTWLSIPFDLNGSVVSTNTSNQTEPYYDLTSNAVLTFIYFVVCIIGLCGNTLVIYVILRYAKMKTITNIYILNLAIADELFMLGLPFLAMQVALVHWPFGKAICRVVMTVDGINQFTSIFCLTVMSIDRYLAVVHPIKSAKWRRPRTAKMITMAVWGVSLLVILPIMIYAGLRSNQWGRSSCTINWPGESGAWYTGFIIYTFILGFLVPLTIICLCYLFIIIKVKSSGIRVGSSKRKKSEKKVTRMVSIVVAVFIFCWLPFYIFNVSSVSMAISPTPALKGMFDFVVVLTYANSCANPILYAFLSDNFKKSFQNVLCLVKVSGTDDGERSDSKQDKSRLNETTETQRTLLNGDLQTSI

For the compound `Cc1cc(F)cc(-c2cnc(NCCNC(=O)CCOCCOCCOCCOCCOCCNC(=O)CN3CCN(CC(=O)O)CCN(CC(=O)O)CCN(CC(=O)O)CC3)c(-c3nc4cc(Cl)ccc4[nH]3)c2N2CCC(N)CC2)c1` [Comp. 1, 2-{7-[({17-[(2-{[4-(4-aminopiperidin-1-yl)-3-(5-chloro-1H-1,3-benzodiazol-2-yl)-5-(3-fluoro-5-methylphenyl)pyridin-2-yl]amino}ethyl)carbamoyl]-3,6,9,12,15-pentaoxaheptadecan-1-yl}carbamoyl)methyl}-4,10-bis(carboxymethyl)-1,4,7,10-tetraazacyclododecan-1-yl}acetic acid, reference compound], the EC50 (read-out: hSST2 cAMP Avg EC50) came out at 0.075 nM. With `Cc1cc(F)cc(-c2cnc(NCCOC(=O)NCCOCCOCCOCCOCCOCCNC(=O)CN3CCN(CC(=O)O)CCN(CC(=O)O)CCN(CC(=O)O)CC3)c(-c3nc4cc(Cl)ccc4[nH]3)c2N2CCC(N)CC2)c1` [Comp. 2, 2-(7-{[(17-{[(2-{[4-(4-aminopiperidin-1-yl)-3-(5-chloro-1H-1,3-benzodiazol-2-yl)-5-(3-fluoro-5-methylphenyl)pyridin-2-yl]amino}ethoxy)carbonyl]amino}-3,6,9,12,15-pentaoxaheptadecan-1-yl)carbamoyl]methyl}-4,10-bis(carboxymethyl)-1,4,7,10-tetraazacyclododecan-1-yl)acetic acid, reference compound], under “read-out: hSST2 cAMP Avg EC50”, the EC50 is 0.17 nM. `Cc1cc(F)cc(-c2cnc(NCCCNC(=O)CCOCCOCCOCCOCCOCCNC(=O)CN3CCN(CC(=O)O)CCN(CC(=O)O)CCN(CC(=O)O)CC3)c(-c3nc4cc(Cl)ccc4[nH]3)c2N2CCC(N)CC2)c1` [Compound 3, 2-{7-[{{17-[(3-{[4-(4-aminopiperidin-1-yl)-3-(5-chloro-1H-1,3-benzodiazol-2-yl)-5-(3-fluoro-5-methylphenyl)pyridin-2-yl]amino}propyl)carbamoyl]-3,6,9,12,15-pentaoxaheptadecan-1-yl}carbamoyl)methyl]-4,10-bis(carboxymethyl)-1,4,7,10-tetraazacyclododecan-1-yl}acetic acid]: the EC50 (read-out: hSST2 cAMP Avg EC50) was found to be 0.14 nM. For `Cc1cc(F)cc(-c2cnc(NC3CCN(C(=O)CCOCCOCCOCCOCCOCCOCCNC(=O)CN4CCN(CC(=O)O)CCN(CC(=O)O)CCN(CC(=O)O)CC4)CC3)c(-c3nc4cc(Cl)ccc4[nH]3)c2N2CCC(N)CC2)c1` [Compound 4, 2-[7-({[21-(4-{[4-(4-aminopiperidin-1-yl)-3-(5-chloro-1H-1,3-benzodiazol-2-yl)-5-(3-fluoro-5-methylphenyl)pyridin-2-yl]amino}piperidin-1-yl)-21-oxo-3,6,9,12,15,18-hexaoxahenicosan-1-yl]carbamoyl}methyl)-4,10-bis(carboxymethyl)-1,4,7,10-tetraazacyclododecan-1-yl]acetic acid], the EC50 (read-out: hSST2 cAMP Avg EC50) stood at 0.2 nM.

For the compound `Cc1cc(F)cc(-c2cnc(NCCOCCOCCOCCOCCNC(=O)CN3CCN(CC(=O)O)CCN(CC(=O)O)CCN(CC(=O)O)CC3)c(-c3ccc(C(F)(F)F)cc3)c2N2CCC(N)CC2)c1` [Compound 5, 2-(4-{[(14-{[4-(4-aminopiperidin-1-yl)-5-(3-fluoro-5-methylphenyl)-3-[4-(trifluoromethyl)phenyl]pyridin-2-yl]amino}-3,6,9,12-tetraoxatetradecan-1-yl)carbamoyl]methyl}-7,10-bis(carboxymethyl)-1,4,7,10-tetraazacyclododecan-1-yl)acetic acid], under “read-out: hSST2 cAMP Avg EC50”, the EC50 stood at 0.66 nM. Take `COCCOCCOCCOCCOCCC(=O)NCCNc1ncc(-c2cc(C)cc(F)c2)c(N2CCC(N)CC2)c1-c1nc2ccc(Cl)cc2[nH]1` [Compound 14, N-(2-{[4-(4-aminopiperidin-1-yl)-3-(6-chloro-1H-1,3-benzodiazol-2-yl)-5-(3-fluoro-5-methylphenyl)pyridin-2-yl]amino}ethyl)-2,5,8,11,14-pentaoxaheptadecan-17-amide]: for the setting “read-out: hSST2 cAMP Avg EC50”, the EC50 was found to be 0.048 nM. Take `Cc1cc(F)cc(-c2cnc(NCCNC(=O)CCOCCOCCOCCOCCOCCNC(=O)CN3CCN4CCN5CCN(CC3)CC(=O)[O][In]([O]C(=O)C4)[O]C(=O)C5)c(-c3nc4cc(Cl)ccc4[nH]3)c2N2CCC(N)CC2)c1` [Compound 15, N-(2-{[4-(4-aminopiperidin-1-yl)-3-(5-chloro-1H-1,3-benzodiazol-2-yl)-5-(3-fluoro-5-methylphenyl)pyridin-2-yl]amino}ethyl)-1-(2-{3,16,19-trioxo-2,17,18-trioxa-5,8,11,14-tetraaza-1-indatricyclo[9.6.3.2^5,14]docosan-8-yl}acetamido)-3,6,9,12,15-pentaoxaoctadecan-18-amide]: under “read-out: hSST2 cAMP Avg EC50”, the EC50 was 0.057 nM.

Consider `Cc1cc(F)cc(-c2cnc(NCCCNC(=O)CCOCCOCCOCCOCCOCCNC(=O)CN3CCN4CCN5CCN(CC3)CC(=O)[O][In]([O]C(=O)C4)[O]C(=O)C5)c(-c3nc4cc(Cl)ccc4[nH]3)c2N2CCC(N)CC2)c1` [Compound 16, N-(3-{[4-(4-aminopiperidin-1-yl)-3-(5-chloro-1H-1,3-benzodiazol-2-yl)-5-(3-fluoro-5-methylphenyl)pyridin-2-yl]amino}propyl)-1-(2-{3,16,19-trioxo-2,17,18-trioxa-5,8,11,14-tetraaza-1-indatricyclo[9.6.3.2^5,^14]docosan-8-yl}acetamido)-3,6,9,12,15-pentaoxaoctadecan-18-amide], for which the EC50 (read-out: hSST2 cAMP Avg EC50) worked out at 0.11 nM. On the same count and under the same terms, the value for `Cc1cc(F)cc(-c2cnc(NC3CCN(C(=O)CCOCCOCCOCCOCCOCCOCCNC(=O)CN4CCN5CCN6CCN(CC4)CC(=O)[O][In]([O]C(=O)C5)[O]C(=O)C6)CC3)c(-c3nc4cc(Cl)ccc4[nH]3)c2N2CCC(N)CC2)c1` [Compound 17, N-[21-(4-{[4-(4-aminopiperidin-1-yl)-3-(5-chloro-1H-1,3-benzodiazol-2-yl)-5-(3-fluoro-5-methylphenyl)pyridin-2-yl]amino}piperidin-1-yl)-21-oxo-3,6,9,12,15,18-hexaoxahenicosan-1-yl]-2-{3,16,19-trioxo-2,17,18-trioxa-5,8,11,14-tetraaza-1-indatricyclo[9.6.3.2^5,^14]docosan-8-yl}acetamide] was 0.1 nM. As for `Cc1cc(F)cc(-c2cnc(NCCOCCOCCOCCOCCNC(=O)CN3CCN4CCN5CCN(CC3)CC(=O)[O][In]([O]C(=O)C4)[O]C(=O)C5)c(-c3ccc(C(F)(F)F)cc3)c2N2CCC(N)CC2)c1` [Compound 18, N-(14-{[4-(4-aminopiperidin-1-yl)-5-(3-fluoro-5-methylphenyl)-3-[4-(trifluoromethyl)phenyl]pyridin-2-yl]amino}-3,6,9,12-tetraoxatetradecan-1-yl)-2-{3,16,19-trioxo-2,17,18-trioxa-5,8,11,14-tetraaza-1-indatricyclo[9.6.3.2^5,^14]docosan-8-yl}acetamide], where the note is “read-out: hSST2 cAMP Avg EC50”, the EC50 worked out at 1.8 nM. Turning to `CC[C@@]1(O)C(=O)OCc2c1cc1n(c2=O)Cc2c-1nc1cc(F)c(C)c3c1c2[C@@H](NC(=O)OCc1ccc(NC(=O)[C@H](CCCNC(N)=O)NC(=O)[C@@H](NC(=O)CCOCCC(=O)NCCNc2ncc(-c4cc(C)cc(F)c4)c(N4CCC(N)CC4)c2-c2nc4ccc(Cl)cc4[nH]2)C(C)C)c(O[C@@H]2O[C@H](C(=O)O)[C@@H](O)[C@H](O)[C@H]2O)c1)CC3` [Compound 73], the response (hSST2 cAMP Avg EC50 (nM)) was half-maximal at 0.49 nM (EC50). Where the note is “hSST2 cAMP Avg EC50 (nM)”, `CC[C@@]1(O)C(=O)OCc2c1cc1n(c2=O)Cc2c-1nc1cc(F)c(C)c3c1c2[C@@H](NC(=O)OCc1ccc(NC(=O)[C@H](CCCNC(N)=O)NC(=O)[C@@H](NC(=O)CCOCCOCCOCCOCCC(=O)NCCNc2ncc(-c4cc(C)cc(F)c4)c(N4CCC(N)CC4)c2-c2nc4ccc(Cl)cc4[nH]2)C(C)C)c(O[C@@H]2O[C@H](C(=O)O)[C@@H](O)[C@H](O)[C@H]2O)c1)CC3` [Compound 74] displayed an EC50 of 0.31 nM.
